# From the supplement of paper PMC4723716
# Tested on: Plasmodium falciparum NF54 gametocytes
# Conditions: 384, incubation time: 72 h
# Procedure: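 Known antimalarials and MMV control compounds in dose response against each stage (I–V) […] The fitted EC50 is reported as IC50 in µM; '>' marks the top dose reached without a curve.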
# [1] = gametocyte stage: Stage I Dose Response IC50 (µM), assay protocol: SaLSSA
# [2] = gametocyte stage: Stage I Dose Response IC50 (µM), assay protocol: TSSA
# [3] = gametocyte stage: Stage II Dose Response IC50 (µM), assay protocol: SaLSSA
# [4] = gametocyte stage: Stage II Dose Response IC50 (µM), assay protocol: TSSA
# [5] = gametocyte stage: Stage III Dose Response IC50 (µM), assay protocol: SaLSSA
# [6] = gametocyte stage: Stage III Dose Response IC50 (µM), assay protocol: TSSA
# [7] = gametocyte stage: Stage IV Dose Response IC50 (µM), assay protocol: SaLSSA
# [8] = gametocyte stage: Stage IV Dose Response IC50 (µM), assay protocol: TSSA
# [9] = gametocyte stage: Stage V Dose Response IC50 (µM), assay protocol: SaLSSA
# [10] = gametocyte stage: Stage V Dose Response IC50 (µM), assay protocol: TSSA
SMILES,IC50 of gametocyte viability [1] [µM],IC50 of gametocyte viability [2] [µM],IC50 of gametocyte viability [3] [µM],IC50 of gametocyte viability [4] [µM],IC50 of gametocyte viability [5] [µM],IC50 of gametocyte viability [6] [µM],IC50 of gametocyte viability [7] [µM],IC50 of gametocyte viability [8] [µM],IC50 of gametocyte viability [9] [µM],IC50 of gametocyte viability [10] [µM]
CCN(CC)CCCC(C)Nc1ccnc2cc(Cl)ccc12 (stereo not given) [Chloroquine],0.0956,0.084,0.0981,0.0806,> 6.25,> 6.25,> 6.25,> 6.25,> 6.25,> 6.25
CC(C)(N)CNC(=O)C[C@H]1CC[C@]2(CC1)OOC1(O2)C2CC3CC(C2)CC1C3 (stereo not given in full),0.00769,–,0.00395,–,0.00158,–,0.00787,–,> 12.5,–
C[C@H]1[C@@H](O)O[C@@H]2O[C@@]3(C)CC[C@H]4[C@H](C)CC[C@@H]1[C@@]24OO3 [Artenimol (Dihydro artemisinin)],–,0.00685,–,0.00766,–,0.0152,–,0.0403,–,> 12.5
C[C@@H]1C[C@@H]([C@H](O)CC2CC(=O)NC(=O)C2)C(=O)[C@@H](C)C1 [Cycloheximide],1.92,–,0.64,–,0.913,–,0.477,–,2.69,–
CCN(CCO)CCCC(C)Nc1ccnc2cc(Cl)ccc12 (stereo not given) [Hydroxychloroquine],0.107,0.104,0.131,0.139,> 4.49,> 6.25,> 6.25,> 6.25,> 6.25,> 6.25
O=CN(O)CCCP(=O)([O-])O [fosmidomycin mono sodium],> 12.5,–,> 12.5,–,> 12.5,–,> 12.5,–,> 12.5,–
CCc1nc(N)nc(N)c1-c1ccc(Cl)cc1 [pyrimethamine],> 12.5,–,> 12.5,–,> 12.5,–,> 12.5,–,> 12.5,–
CC[C@H]1OC(=O)[C@H](C)[C@H](O[C@H]2C[C@@](C)(OC)[C@@H](O)[C@H](C)O2)[C@H](C)[C@@H](O[C@@H]2O[C@H](C)C[C@H](N(C)C)[C@H]2O)[C@](C)(O)C[C@@H](C)CN(C)[C@H](C)[C@H](O)[C@]1(C)O [Azithromycin],> 12.5,–,> 12.5,–,> 12.2,–,> 12.5,–,> 12.5,–
Cc1cc(NS(=O)(=O)c2ccc(N)cc2)no1 [Sulfamethoxazole],–,> 12.5,–,> 12.5,–,> 12.5,–,> 12.5,–,> 12.5
CC[C@H]1OC(=O)[C@H](C)[C@@H](O[C@H]2C[C@@](C)(OC)[C@@H](O)[C@H](C)O2)[C@H](C)[C@@H](O[C@@H]2O[C@H](C)C[C@H](N(C)C)[C@H]2O)[C@](C)(O)C[C@@H](C)CN(C)[C@H](C)[C@@H](O)[C@]1(C)O [Azithromycin],–,> 12.5,–,> 12.5,–,> 12.5,–,> 12.5,–,> 12.5
CN(C)c1ccc2nc3ccc(N(C)C)cc3[s+]c2c1 [Methylene Blue trihydrate],0.0199,–,0.0153,–,0.0133,–,0.0117,–,0.258,–
C[C@H]1c2cccc(O)c2C(O)=C2C(=O)[C@]3(O)C(O)=C(C(N)=O)C(=O)[C@@H](N(C)C)[C@@H]3[C@@H](O)[C@@H]21 [Doxycyclin],–,> 12.5,–,> 12.5,–,> 12.5,–,> 12.5,–,> 12.5
Clc1ccc2c(N3CCN(CCCN4CCN(c5ccnc6cc(Cl)ccc56)CC4)CC3)ccnc2c1 [Piperaquine phosphate],0.018,–,0.0145,–,0.031,–,> 4.17,–,> 4.17,–
C=C(NC(=O)C(=C)NC(=O)c1csc(C2=N[C@@H]3c4csc(n4)[C@H]4NC(=O)c5csc(n5)[C@H]([C@](C)(O)[C@@H](C)O)NC(=O)[C@H]5CSC(=N5)/C(=C/C)NC(=O)[C@H]([C@@H](C)O)NC(=O)c5csc(n5)[C@]3(CC2)NC(=O)[C@H](C)NC(=O)C(=C)NC(=O)[C@H](C)NC(=O)[C@H]([C@@H](C)CC)N[C@@H]2C=Cc3c([C@H](C)O)cc(nc3[C@H]2O)C(=O)O[C@@H]4C)n1)C(N)=O [Thiostrepton],–,4.04,–,4.81,–,3.75,–,3.41,–,3.42
